Measurements reported in publication PMC10609429, “Crystal Structure and Intermolecular Energy for Some Nandrolone Esters” (Molecules, 2023).
Converted amounts (≈) assume the structure as drawn. “And” between values parts separate entries of the source, which are not always exact repeats. Identical values can stand only once. Like-named read-outs stand apart in the source and are kept apart here.

Legend:
[1] = analogue esters of testosterone; cited from earlier work
[2] = Solubility evaluation of nandrolone esters in oil / benzyl benzoate / benzyl alcohol mixtures; format: physicochemical; conditions: 24 °C, oil or lipid, thermodynamic from solid
Protocol: From a pharmaceutical standpoint, the solubility of esterified agents (mg/mL) plays an important role in drug development and delivery. In this context, the solubilities were evaluated in multiple mixtures based on various organic oils: medium-chain triglyceride (MCT), apricot, grape seed oil (GSO) and cottonseed oil. Each solution contains a mixture of benzyl alcohol, benzyl benzoate and oil with a volumetric ratio of 2% benzyl alcohol, 20% benzyl benzoate and the rest of 78% oil.
Solubility evaluation was accomplished at a room temperature of 24 °C in successive additions of small quantities of raw materials (a few mg each step). The mixtures were stirred for up to several hours in order to achieve a completely dissolved solution. In the case that an undissolved excess of raw materials remained in the suspension, small quantities of mixtures were added until the solutions became perfectly homogenous and clear. Two measurements were performed in order to attain a good accuracy; their average was further discussed.

[3] = set-up: method as in PMID 817322; conditions: oral vs subcutaneous; cited from earlier work
[4] = unesterified nandrolone; cited from earlier work
[5] = set-up: method as in PMID 28522428; conditions: two polymorphs, respectively; ambient temperature of 20 °C; mixtures of castor oil; cited from earlier work
[6] = average over the four oil mixtures (apricot, GSO, MCT, cottonseed), read-out: Solubility (average)
[7] = medium-chain triglyceride mixture: 2% benzyl alcohol, 20% benzyl benzoate, 78% oil (v/v), room temperature 24 °C, average of two measurements, read-out: Solubility, MCT
[8] = apricot oil / benzyl benzoate / benzyl alcohol mixture, apricot oil mixture: 2% benzyl alcohol, 20% benzyl benzoate, 78% oil (v/v), room temperature 24 °C, average of two measurements, read-out: Solubility, APRICOT
[9] = cottonseed oil / benzyl benzoate / benzyl alcohol mixture, cottonseed oil mixture: 2% benzyl alcohol, 20% benzyl benzoate, 78% oil (v/v), room temperature 24 °C, average of two measurements, read-out: Solubility, COTTON
[10] = grape seed oil / benzyl benzoate / benzyl alcohol mixture, grape seed oil mixture: 2% benzyl alcohol, 20% benzyl benzoate, 78% oil (v/v), room temperature 24 °C, average of two measurements, read-out: Solubility, GSO

Structure (SMILES) | solubility [2, 6] [mg/mL] | solubility [2, 7] [mg/mL] | solubility [2, 8] [mg/mL] | solubility [2, 9] [mg/mL] | solubility [2, 10] [mg/mL] | further results
CCCCCCCCCCC(=O)O[C@H]1CC[C@H]2[C@@H]3CCC4=CC(=O)CC[C@]4(C)[C@H]3CC[C@]12C [undecanoate ester of testosterone] |  |  |  |  |  | solubility [1]: 197 mg/mL (≈ 431 mM)
C[C@]12CC[C@H]3[C@@H](CCC4=CC(=O)CC[C@@H]43)[C@@H]1CC[C@@H]2OC(=O)CCc1ccccc1 [NPhp, Nandrolone phenylpropionate] | ~138 (≈ 339 mM) | 148 (≈ 365 mM) | 127 (≈ 313 mM) | 140 (≈ 345 mM) | 137 (≈ 336 mM) | 
CCCCCCCCCCC(=O)OC1CCC2C3CCC4=CC(=O)CCC4C3CCC12C (centres unmarked) [NUnd, Nandrolone undecanoate] | ~192 (≈ 433 mM) | 211 (≈ 478 mM) | 183 (≈ 413 mM) | 199 (≈ 450 mM) | 173 (≈ 391 mM) | 
C[C@]12CC[C@H]3[C@@H](CCC4=CC(=O)CC[C@@H]43)[C@@H]1CC[C@@H]2O [nandrolone, Estr-4-en-17β-ol-3-one] |  |  |  |  |  | Potency of the oral form compared with subcutaneous administration [3]: one-tenth; Half-life [4]: a few hours
C[C@]12CC[C@H]3[C@@H](CCC4=CC(=O)CC[C@@]43C)[C@@H]1CC[C@@H]2OC(=O)CCC1CCCC1 [testosterone cypionate] |  |  |  |  |  | solubility [1]: 255 mg/mL (≈ 618 mM)
CCCCCC(=O)O[C@]1(C(C)=O)CC[C@H]2[C@@H]3CCC4=CC(=O)CC[C@]4(C)[C@H]3CC[C@@]21C [hydroxyprogesterone caproate] |  |  |  |  |  | solubility [5]: 278 mg/mL and 301 mg/mL
CCC(=O)OC1CCC2C3CCC4=CC(=O)CCC4C3CCC12C (centres unmarked) [NPro, Nandrolone propionate] | ~188 (≈ 569 mM) | 187 (≈ 566 mM) | 181 (≈ 548 mM) | 180 (≈ 544 mM) | 204 (≈ 619 mM) | 
